Measured values as given in ChEMBL document CHEMBL1138343 (J Med Chem, 2007).

Assays:
Glucocorticoid receptor [1] = target: T1, Glucocorticoid receptor (Homo sapiens, UniProt P04150); assay: Agonist activity at glucocorticoid receptor in human A549 cells by MMTV transactivation assay; assay type: functional, cell-based; conditions: for pEC50: a549
T1 sequence (P04150 whole entry): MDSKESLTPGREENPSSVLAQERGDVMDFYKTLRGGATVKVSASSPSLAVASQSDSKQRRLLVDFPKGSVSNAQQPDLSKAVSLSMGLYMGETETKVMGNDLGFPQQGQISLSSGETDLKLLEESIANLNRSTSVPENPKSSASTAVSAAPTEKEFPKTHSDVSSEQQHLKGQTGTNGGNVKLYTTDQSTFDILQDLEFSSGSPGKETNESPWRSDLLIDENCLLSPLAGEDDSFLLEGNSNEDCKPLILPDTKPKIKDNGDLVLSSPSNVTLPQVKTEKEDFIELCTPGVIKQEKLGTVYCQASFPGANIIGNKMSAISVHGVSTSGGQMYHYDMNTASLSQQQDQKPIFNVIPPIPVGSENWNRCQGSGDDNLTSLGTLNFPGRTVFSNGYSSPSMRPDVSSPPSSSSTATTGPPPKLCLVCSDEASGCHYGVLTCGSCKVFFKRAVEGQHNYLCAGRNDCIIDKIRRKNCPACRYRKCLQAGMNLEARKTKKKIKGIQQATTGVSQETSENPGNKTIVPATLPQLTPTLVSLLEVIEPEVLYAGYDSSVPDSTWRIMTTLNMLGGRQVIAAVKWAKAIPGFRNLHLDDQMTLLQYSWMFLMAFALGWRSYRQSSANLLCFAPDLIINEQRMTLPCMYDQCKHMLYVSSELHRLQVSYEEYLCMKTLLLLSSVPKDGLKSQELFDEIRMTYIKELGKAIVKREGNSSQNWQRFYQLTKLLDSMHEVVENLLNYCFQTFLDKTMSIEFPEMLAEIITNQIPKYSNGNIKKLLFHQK

Glucocorticoid receptor [2] = target: T1, Glucocorticoid receptor
Glucocorticoid receptor [3] = target: T1, Glucocorticoid receptor; remark: listed apart in the source
Description: Agonist activity at glucocorticoid receptor in human A549 cells by NF-kappaB transrepression assay

Glucocorticoid receptor [4] = target: T1, Glucocorticoid receptor; remark: listed apart in the source

| Structure (SMILES) | EC50 (Glucocorticoid receptor [1]) [nM] | IC50 (Glucocorticoid receptor [2]) [nM] | IC50 (Glucocorticoid receptor [3]) [nM] | IC50 (Glucocorticoid receptor [4]) [nM] | pEC50 (Glucocorticoid receptor [1]) |
| --- | --- | --- | --- | --- | --- |
| CC1(CC(O)(Cn2ccc(=O)c3ccccc32)C(F)(F)F)CCCc2ccccc21 (stereo in doubt; 17D2) | > 1000 | 34.7 | > 1000 | 708 | – |
| CCC1(CC(O)(Cc2cc3ccccc3[nH]2)C(F)(F)F)CCCc2ccccc21 (stereo in doubt; 20D1E1) | 61.7 | 14.1 | 11.2 | 245 | – |
| CCC1(CC(O)(CNc2cccc3nc(C)ccc23)C(F)(F)F)CCCc2ccccc21 (stereo in doubt; 45D1E1) | 11 | 14.8 | 1.95 | – | – |
| CCC1(CC(O)(Cc2cc3ccccc3[nH]2)C(F)(F)F)CCCc2ccccc21 (stereo in doubt; 20D1) | 64.6 | 31.6 | 57.5 | – | – |
| CCC1(CC(O)(Cc2ccnc3ccccc23)C(F)(F)F)CCCc2ccccc21 (stereo in doubt; 33D1) | 38 | 15.1 | 4.9 | 5010 | – |
| CCC1(CC(O)(CNc2cccc3nc(C)ccc23)C(F)(F)F)CCCc2ccccc21 (stereo in doubt; 45D1) | 13.2 | 14.8 | 2.4 | – | – |
| CCC1(CC(O)(Cc2cc3ccccc3[nH]2)C(F)(F)F)CCCc2ccccc21 (stereo in doubt; 20D1E2) | – | 1260 | > 1000 | – | – |
| CCC1(CC(O)(Cc2[nH]c3ccccc3c2C#N)C(F)(F)F)CCCc2ccccc21 (stereo not given) | > 1000 | 7.59 | 6.61 | 57.5 | – |
| Cc1noc(=O)c2ccc(NC(=O)C(O)(CC3(C4CCCC4)CCCc4ccccc43)C(F)(F)F)cc12 (stereo not given) | 17.8 | 8.13 | 2.04 | 53.7 | – |
| CCC1(CC(O)(Cc2ccnc3ccccc23)C(F)(F)F)CCCc2ccccc21 (stereo in doubt; 33D2) | > 10000 | 33.1 | 275 | – | – |
| Cc1ccc2c(NCC(O)(CC3(C)CCCc4ccccc43)C(F)(F)F)cccc2n1 (stereo in doubt; 55D1E1) | 9.55 | 5.01 | 0.501 | 77.6 | – |
| CCC1(CC(O)(Cc2cc3ccncc3[nH]2)C(F)(F)F)CCCc2ccccc21 (stereo in doubt; 23D1) | – | 28.2 | 20 | – | < 6 |
| CCC1(CC(O)(CNc2cccc3cnccc23)C(F)(F)F)CCCc2ccccc21 (stereo in doubt; 49D1) | 32.4 | 21.4 | 1.26 | – | – |
| CCC1(CC(O)(Cc2cc3c(C)cc(C#N)cc3[nH]2)C(F)(F)F)CCCc2ccccc21 (stereo in doubt; 21D1) | 58.9 | 89.1 | 7.24 | – | – |
| CC1(CC(O)(Cc2ccnc3ccccc23)C(F)(F)F)CCCc2ccccc21 (stereo in doubt; 41D1) | 12.9 | 15.1 | 7.08 | – | – |
| CCC1(CC(O)(Cc2ccnc3ccccc23)C(F)(F)F)CCCc2ccccc21 (stereo in doubt; 33D1E1) | > 1000 | 10 | 1.58 | – | – |
| CCC1(CC(O)(Cc2cc3ccncc3[nH]2)C(F)(F)F)CCCc2ccccc21 (stereo in doubt; 23D1E1) | > 1000 | 8.91 | 8.91 | 741 | – |
| CCC1(CC(O)(CNc2cccc3ncccc23)C(F)(F)F)CCCc2ccccc21 (stereo not given) | > 1000 | 11.2 | 12.3 | – | – |
| CCC1(CC(O)(CNc2cccc3cnccc23)C(F)(F)F)CCCc2ccccc21 (stereo in doubt; 49D1E2) | > 1000 | 10 | 2.19 | – | – |
| CC1(CC(O)(Cc2ccnc3ccccc23)C(F)(F)F)CCCc2ccccc21 (stereo in doubt; 41D2) | > 10000 | 24 | > 10000 | – | – |
| CCC1(CC(O)(Cc2cc(Cl)nc3ccccc23)C(F)(F)F)CCCc2ccccc21 (stereo not given) | 51.3 | 28.2 | 30.2 | – | – |

Further compounds by falling IC50 (Glucocorticoid receptor [2]), results first:

| EC50 (Glucocorticoid receptor [1]) [nM] | IC50 (Glucocorticoid receptor [2]) [nM] | IC50 (Glucocorticoid receptor [3]) [nM] | IC50 (Glucocorticoid receptor [4]) [nM] | pEC50 (Glucocorticoid receptor [1]) | Structure (SMILES) |
| --- | --- | --- | --- | --- | --- |
| > 10000 | 148 | 741 | – | – | OC(Cc1ccnc2ccccc12)(CC1(C2CCCC2)CCCc2ccccc21)C(F)(F)F (stereo not given) |
| 257 | 74.1 | 15.1 | – | – | CC1(CC(O)(CNc2cccc3cnccc23)C(F)(F)F)CCCc2ccccc21 (stereo in doubt; 54D2E1) |
| 51.3 | 38.9 | 3.8 | – | – | CCC1(CC(O)(Cc2cc3c(C)cc(C#N)cc3[nH]2)C(F)(F)F)CCCc2ccccc21 (stereo in doubt; 21D1E2) |
| 41.7 | 22.9 | 42.7 | 447 | – | CC1(CC(O)(Cc2cc3ccccc3[nH]2)C(F)(F)F)CCCc2ccccc21 (stereo not given) |
| 162 | 18.6 | 49 | – | – | CCC1(CC(O)(CNc2cccc3nc(C)ccc23)C(F)(F)F)CCCc2ccccc21 (stereo in doubt; 45D2) |
| 288 | 17.4 | 45.7 | – | – | CCC1(CC(O)(CNc2cccc3nc(C)ccc23)C(F)(F)F)CCCc2ccccc21 (stereo in doubt; 45D2E1) |
| – | 14.1 | 49 | 224 | < 6 | CC1(CC(O)(Cn2ccc(=O)c3ccccc32)C(F)(F)F)CCCc2ccccc21 (stereo in doubt; 17D1) |
| > 1000 | 14.1 | 8.13 | – | – | CCC1(CC(O)(Cn2ccc(=O)c3ccccc32)C(F)(F)F)CCCc2ccccc21 (stereo not given) |
| 72.4 | 9.12 | 9.12 | – | – | Cc1ccc2c(NCC(O)(CC3(C)CCCc4ccccc43)C(F)(F)F)cccc2n1 (stereo in doubt; 55D2E1) |
| 8.32 | 8.71 | 1.17 | 102 | – | CC1(CC(O)(CNc2cccc3cnccc23)C(F)(F)F)CCCc2ccccc21 (stereo in doubt; 54D1E2) |
| 13.5 | 6.31 | 3.09 | – | – | CC1(CC(O)(CNc2cccc3ncccc23)C(F)(F)F)CCCc2ccccc21 (stereo not given) |
